Assay results: paper PMC2806602 (The Journal of neuroscience : the official journal of the …, 2009)
Changes are numbered by the printed parent chain.

Key:
Assay type in all cases: cell-based
GluRδ2^Lc D782A = target: T1, GluRδ2^Lc D782A (Rattus norvegicus, UniProt Q63226, A654T/D782A); assay: Two-electrode voltage-clamp recordings in Xenopus oocytes, GluRδ2^Lc D782A
T1 sequence (Q63226 24-1007 A654T/D782A): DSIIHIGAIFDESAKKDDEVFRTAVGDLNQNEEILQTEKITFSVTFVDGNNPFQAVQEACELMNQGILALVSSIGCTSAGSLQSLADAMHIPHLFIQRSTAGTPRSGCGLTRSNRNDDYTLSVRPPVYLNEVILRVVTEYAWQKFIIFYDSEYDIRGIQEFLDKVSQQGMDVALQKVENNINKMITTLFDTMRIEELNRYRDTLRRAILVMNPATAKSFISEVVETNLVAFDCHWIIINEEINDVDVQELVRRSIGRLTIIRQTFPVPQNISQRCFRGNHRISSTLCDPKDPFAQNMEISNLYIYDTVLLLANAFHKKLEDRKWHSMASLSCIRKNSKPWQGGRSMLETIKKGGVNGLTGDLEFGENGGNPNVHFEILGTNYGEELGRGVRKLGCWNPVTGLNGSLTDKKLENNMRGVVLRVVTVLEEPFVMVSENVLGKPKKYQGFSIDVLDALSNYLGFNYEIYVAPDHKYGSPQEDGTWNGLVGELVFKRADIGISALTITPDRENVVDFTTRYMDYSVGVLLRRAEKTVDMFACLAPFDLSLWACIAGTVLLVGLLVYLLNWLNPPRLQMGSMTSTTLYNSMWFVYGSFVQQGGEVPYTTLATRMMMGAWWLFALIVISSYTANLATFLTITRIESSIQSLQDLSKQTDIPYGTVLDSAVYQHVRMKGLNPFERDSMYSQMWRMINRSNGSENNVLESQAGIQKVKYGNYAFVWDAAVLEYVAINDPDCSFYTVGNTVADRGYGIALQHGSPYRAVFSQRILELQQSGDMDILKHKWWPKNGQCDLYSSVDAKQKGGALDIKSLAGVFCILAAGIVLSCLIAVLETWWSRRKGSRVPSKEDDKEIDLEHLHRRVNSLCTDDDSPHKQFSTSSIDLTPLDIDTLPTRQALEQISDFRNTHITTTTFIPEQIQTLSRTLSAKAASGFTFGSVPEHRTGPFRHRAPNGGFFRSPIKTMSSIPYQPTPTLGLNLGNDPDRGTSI

GluRδ2^Lc D535A = target: T2, GluRδ2^Lc D535A (Rattus norvegicus, UniProt Q63226, A654T/D535A); assay: Two-electrode voltage-clamp recordings in Xenopus oocytes, GluRδ2^Lc D535A
T2 sequence (Q63226 24-1007 D535A/A654T): T1 sequence (Q63226 24-1007 A654T/D782A) with D512A, A759D

GluRδ2^Lc E531A = target: T3, GluRδ2^Lc E531A (Rattus norvegicus, UniProt Q63226, A654T/E531A); assay: Two-electrode voltage-clamp recordings in Xenopus oocytes, GluRδ2^Lc E531A
T3 sequence (Q63226 24-1007 E531A/A654T): T1 sequence (Q63226 24-1007 A654T/D782A) with E508A, A759D

Row | Structure (SMILES) | Ca^2+ potentiation (relative to baseline) (GluRδ2^Lc D782A; 3 mM Ca^2+, ± SEM) [fold] | Ca^2+ potentiation (relative to baseline) (GluRδ2^Lc D535A; 3 mM Ca^2+, ± SEM) [fold] | Ca^2+ potentiation (relative to baseline) (GluRδ2^Lc E531A; 3 mM Ca^2+, ± SEM) [fold] | D-serine + 0 mM Ca^2+ nH (GluRδ2^Lc D782A; Hill slope, 0 mM Ca^2+) | D-serine + 3 mM Ca^2+ nH (GluRδ2^Lc D782A; Hill slope, 3 mM Ca^2+) | D-serine + 0 mM Ca^2+ nH (GluRδ2^Lc D535A; Hill slope, 0 mM Ca^2+) | D-serine + 3 mM Ca^2+ nH (GluRδ2^Lc D535A; Hill slope, 3 mM Ca^2+) | D-serine + 0 mM Ca^2+ nH (GluRδ2^Lc E531A; Hill slope, 0 mM Ca^2+) | D-serine + 3 mM Ca^2+ nH (GluRδ2^Lc E531A; Hill slope, 3 mM Ca^2+)
1 | [Ca+2] [Ca^2+, calcium] | 0.8 ± 0.02 | 1.0 ± 0.01 | 1.6 ± 0.08 |  |  |  |  |  | 
2 | N[C@H](CO)C(=O)O [D-serine] |  |  |  | 1.0 | 1.1 | 2.3 | 2.2 | 1.1 | 1.9
